ChEMBL document CHEMBL1201862, “PubChem BioAssay data set” (2004)
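Tested at 5 concentrations; 48 h exposure; 96-well plates; endpoints linearly interpolated, else capped at highest concentration. The concentration for 50% growth inhibition is given as GI50.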 The source made the active and inactive calls. Cut-off read from the data, not from the text of the source: active = GI50 up to about 1.1 µM and inactive = higher.

Experiments:
Experiment in all cases: NCI-60 cell line screen, 48 h
[1] = tested on: SK-OV-3
[2] = tested on: IGROV-1
[3] = tested on: Hs-578T
[4] = tested on: ACHN
[5] = tested on: HT-29
[6] = tested on: CAKI-1
[7] = tested on: OVCAR-8
[8] = tested on: K562
[9] = tested on: MDA-MB-435
[10] = tested on: UACC-62
[11] = tested on: SN12C
[12] = tested on: OVCAR-5
[13] = tested on: EKVX
[14] = tested on: SW-620
[15] = tested on: Malme-3M
[16] = tested on: HCT-15
[17] = tested on: MDA-MB-231
[18] = tested on: OVCAR-3
[19] = tested on: UACC-257
[20] = tested on: A549
[21] = tested on: KM12
[22] = tested on: NCI-H23
[23] = tested on: RPMI-8226
[24] = tested on: SK-MEL-2
[25] = tested on: SF-268
[26] = tested on: SR
[27] = tested on: M14
[28] = tested on: T47D
[29] = tested on: COLO 205
[30] = tested on: UO-31
[31] = tested on: SF-539
[32] = tested on: 786-0
[33] = tested on: HOP-62
[34] = tested on: NCI-H460
[35] = tested on: SK-MEL-28
[36] = tested on: SNB-75
[37] = tested on: PC-3
[38] = tested on: OVCAR-4
[39] = tested on: TK-10
[40] = tested on: NCI-H522
[41] = tested on: DU-145
[42] = tested on: BT-549
[43] = tested on: HOP-92
[44] = tested on: U-251
[45] = tested on: SF-295
[46] = tested on: HCT-116
[47] = tested on: SK-MEL-5
[48] = tested on: SNB-19
[49] = tested on: HCC 2998
[50] = tested on: NCI-H226
[51] = tested on: A498
[52] = tested on: MDA-N
[53] = tested on: RXF 393
[54] = tested on: MCF7
[55] = tested on: NCI/ADR-RES
[56] = tested on: HL-60
[57] = tested on: LOX IMVI
[58] = tested on: CCRF-CEM
[59] = tested on: MOLT-4

In the case of `Cc1nc([N+](=O)[O-])cn1-c1nc2ccccn2c1[N+](=O)[O-]`, the GI50 [1] is reported as 47.2 µM (inactive), the GI50 [2] is reported as 68.9 µM (inactive) and the GI50 [3] is reported as > 100 µM (inactive). For the same compound, the GI50 [4] was > 100 µM (inactive), the GI50 [5] was 64.9 µM (inactive) and the GI50 [6] was 53.5 µM (inactive). The GI50 [7] was 86.1 µM (inactive), the GI50 [8] was 80.4 µM (inactive) and the GI50 [9] was > 100 µM (inactive). For the same compound, the GI50 [10] was > 100 µM (inactive), the GI50 [11] was 30 µM (inactive) and the GI50 [12] was > 100 µM (inactive). The GI50 [13] was 63.7 µM (inactive), the GI50 [14] was > 100 µM (inactive) and the GI50 [15] was 43.8 µM (inactive). For the same compound, the GI50 [16] was over 100 µM, the GI50 [17] was 56.4 µM (inactive) and the GI50 [18] was > 100 µM (inactive). The GI50 [19] was 99.3 µM (inactive), the GI50 [20] was > 100 µM (inactive) and the GI50 [21] was 48.8 µM (inactive). For the same compound, the GI50 [22] was 47.8 µM (inactive), the GI50 [23] was 64.1 µM (inactive) and the GI50 [24] was 43.4 µM (inactive). The GI50 [25] was > 100 µM (inactive), the GI50 [26] was 42 µM (inactive) and the GI50 [27] was > 100 µM (inactive). For the same compound, the GI50 [28] was 43.7 µM (inactive), the GI50 [29] was 90.4 µM (inactive) and the GI50 [30] was 88.5 µM (inactive). For the same compound, the GI50 [31] was 68.2 µM (inactive), the GI50 [32] was 61.7 µM (inactive) and the GI50 [33] was 55.1 µM (inactive). The GI50 [34] was 45.1 µM (inactive), the GI50 [35] was > 100 µM (inactive) and the GI50 [36] was 32.9 µM (inactive). The GI50 [37] was 38.4 µM (inactive), the GI50 [38] was > 100 µM (inactive) and the GI50 [39] was 67.5 µM (inactive). The GI50 [40] was 55 µM (inactive), the GI50 [41] was 26.5 µM (inactive) and the GI50 [42] was > 100 µM (inactive). The GI50 [43] was > 100 µM (inactive), the GI50 [44] was 53.2 µM (inactive) and the GI50 [45] was > 100 µM (inactive). For the same compound, the GI50 [46] was 74.3 µM (inactive), the GI50 [47] was 81.8 µM (inactive) and the GI50 [48] was 80.2 µM (inactive). For the same compound, the GI50 [49] was 41.2 µM (inactive), the GI50 [50] was > 100 µM (inactive) and the GI50 [51] was > 100 µM (inactive). The GI50 [52] was 57.4 µM (inactive), the GI50 [53] was 17.7 µM (inactive) and the GI50 [54] was 95.3 µM (inactive). For the same compound, the GI50 [55] was > 100 µM (inactive).

`CN1C(=O)C(CC(=O)O)NC1=S` (stereo unspecified) was tested, and the GI50 [1] was > 100 µM (inactive), the GI50 [2] was 99.5 µM (inactive) and the GI50 [3] was > 100 µM (inactive). The GI50 [4] was > 100 µM (inactive), the GI50 [5] was > 100 µM (inactive) and the GI50 [6] was > 100 µM (inactive). The GI50 [7] was > 100 µM (inactive), the GI50 [8] was > 100 µM (inactive) and the GI50 [9] was > 100 µM (inactive). The GI50 [10] was > 100 µM (inactive), the GI50 [11] was > 100 µM (inactive) and the GI50 [56] was > 100 µM (inactive). The GI50 [12] was > 100 µM (inactive), the GI50 [13] was 56.6 µM (inactive) and the GI50 [14] was > 100 µM (inactive). For the same compound, the GI50 [15] was > 100 µM (inactive), the GI50 [16] was over 100 µM and the GI50 [17] was > 100 µM (inactive). The GI50 [18] was > 100 µM (inactive), the GI50 [19] was > 100 µM (inactive) and the GI50 [20] was > 100 µM (inactive). For the same compound, the GI50 [21] was > 100 µM (inactive), the GI50 [22] was > 100 µM (inactive) and the GI50 [23] was > 100 µM (inactive). For the same compound, the GI50 [24] was > 100 µM (inactive), the GI50 [25] was > 100 µM (inactive) and the GI50 [26] was > 100 µM (inactive). For the same compound, the GI50 [27] was > 100 µM (inactive), the GI50 [28] was 51.4 µM (inactive) and the GI50 [29] was > 100 µM (inactive). The GI50 [57] was > 100 µM (inactive), the GI50 [30] was > 100 µM (inactive) and the GI50 [31] was > 100 µM (inactive). The GI50 [32] was > 100 µM (inactive), the GI50 [33] was > 100 µM (inactive) and the GI50 [58] was > 100 µM (inactive). For the same compound, the GI50 [34] was > 100 µM (inactive), the GI50 [35] was > 100 µM (inactive) and the GI50 [36] was > 100 µM (inactive). The GI50 [37] was > 100 µM (inactive), the GI50 [59] was > 100 µM (inactive) and the GI50 [39] was > 100 µM (inactive). The GI50 [40] was > 100 µM (inactive), the GI50 [41] was > 100 µM (inactive) and the GI50 [42] was > 100 µM (inactive). The GI50 [43] was > 100 µM (inactive), the GI50 [44] was > 100 µM (inactive) and the GI50 [45] was > 100 µM (inactive). For the same compound, the GI50 [46] was 95.5 µM (inactive), the GI50 [47] was > 100 µM (inactive) and the GI50 [48] was > 100 µM (inactive). For the same compound, the GI50 [49] was > 100 µM (inactive), the GI50 [51] was > 100 µM (inactive) and the GI50 [52] was > 100 µM (inactive). For the same compound, the GI50 [53] was > 100 µM (inactive), the GI50 [54] was 54 µM (inactive) and the GI50 [55] was > 100 µM (inactive).

With `CC1(C)OC2C(=O)C=C(COCc3ccccc3)C2O1` (stereo unspecified) the GI50 [1] was 9.44 µM (inactive), the GI50 [2] was 19.8 µM (inactive) and the GI50 [3] was 27 µM (inactive). The GI50 [4] was 31.6 µM (inactive), the GI50 [5] was 33 µM (inactive) and the GI50 [6] was 35.3 µM (inactive). The GI50 [7] was 34.2 µM (inactive), the GI50 [8] was 23.6 µM (inactive) and the GI50 [9] was 25.2 µM (inactive). For the same compound, the GI50 [10] was 12.3 µM (inactive), the GI50 [11] was 28 µM (inactive) and the GI50 [56] was 11.2 µM (inactive). For the same compound, the GI50 [12] was 31.1 µM (inactive), the GI50 [13] was 37.5 µM (inactive) and the GI50 [14] was 23.6 µM (inactive). The GI50 [15] was 19 µM (inactive), the GI50 [16] was 35.2 µM and the GI50 [17] was 27.4 µM (inactive). The GI50 [19] was 35.5 µM (inactive), the GI50 [20] was > 100 µM (inactive) and the GI50 [21] was 21.5 µM (inactive). For the same compound, the GI50 [22] was 19.2 µM (inactive), the GI50 [23] was 24.8 µM (inactive) and the GI50 [24] was 38.9 µM (inactive). The GI50 [25] was 25.4 µM (inactive), the GI50 [26] was 35.1 µM (inactive) and the GI50 [27] was 26.3 µM (inactive). For the same compound, the GI50 [28] was 23 µM (inactive), the GI50 [29] was 20.5 µM (inactive) and the GI50 [57] was 25.6 µM (inactive). The GI50 [30] was 21.9 µM (inactive), the GI50 [31] was 30 µM (inactive) and the GI50 [32] was 42.8 µM (inactive). The GI50 [33] was 26.4 µM (inactive), the GI50 [58] was 21 µM (inactive) and the GI50 [35] was 30 µM (inactive). The GI50 [36] was > 10 µM (inactive), the GI50 [37] was 23.9 µM (inactive) and the GI50 [59] was 28.4 µM (inactive). For the same compound, the GI50 [39] was 28.2 µM (inactive), the GI50 [40] was 16.5 µM (inactive) and the GI50 [41] was 44.6 µM (inactive). For the same compound, the GI50 [42] was 15.6 µM (inactive), the GI50 [44] was 29.2 µM (inactive) and the GI50 [45] was 35.2 µM (inactive). For the same compound, the GI50 [46] was 23.6 µM (inactive), the GI50 [47] was 13.1 µM (inactive) and the GI50 [48] was 47.2 µM (inactive). For the same compound, the GI50 [50] was 22.9 µM (inactive), the GI50 [51] was 56.6 µM (inactive) and the GI50 [52] was 34.8 µM (inactive). For the same compound, the GI50 [53] was 15.5 µM (inactive), the GI50 [54] was 34 µM (inactive) and the GI50 [55] was 37.2 µM (inactive).
